US11434235B2, “Solid form of dihydropyrimidine compound and preparation method therefor and use thereof” (SICHUAN KELUN-BIOTECH BIOPHARMACEUTICAL CO., LTD., priority 2018, dated 2022)

Columns and labels:
[1] = Stability of the crystalline form A under grinding (XRPD); assay type: physicochemical; settings: ground in a mortar for 5 minutes
Description: (§1) X′Pert3 Powder diffractometer using Cu target radiation was employed, and the detection was performed at room temperature with Absolute scan. The detection range was 3.5° to 40° with a step size of 0.013° and a dwell time of 50 s, scan time: 1. A sample of the crystalline form A of the compound of Formula (I) was ground at a constant speed in a mortar, and samples were taken after the grinding was performed for 2 and 5 minutes, respectively, for XRPD detection.

[2] = Stability of the crystalline form A at room temperature (XRPD); assay type: physicochemical; settings: 15 days
Description: as §1, with “allowed to stand” for “ground”, “room temperature,” for “a constant speed in a mortar,”, “on Day 5” for “after the grinding was performed for 2”, “15” for “5 minutes, respectively,”

[3] = DVS study (hygroscopicity) of the crystalline form A; assay type: physicochemical
Description: The experimental conditions for the dynamic vapor sorption (DVS) were as follows: The detection was performed with DVS Intrinsic (SMS) at 25° C. in a cycle-DMDT mode. The hygroscopicity of a sample of the crystalline form A of the compound of Formula (I) was measured through dynamic vapor sorption (DVS): the hygroscopicity thereof was measured at 25° C., 10% humidity gradient in the range of 0%-90%-0%.

SD rats = assay: Single-dose toxicity in SD rats; assay type: in vivo
Excerpt: The mortar was washed with a 0.5% methyl cellulose (MC) solution with grinding, until there was no visible residue. The mixture was transferred to a calibrated container, and then diluted with a 0.5% methyl cellulose solution to the volume. The solution was stirred uniformly with a magnetic stirrer to obtain a suspension, which was used as the test sample.
4 groups (10 rats per group, half male and half female) were set in the single-dose toxicity test in SD rats, and they were the vehicle control group and the low-, medium-, and high-dose groups of the crystalline form A of the compound of Formula (I), respectively.

[4] = Determination of the solubility of the crystalline form A; assay type: physicochemical; settings: 25±2° C., Chinese Pharmacopoeia 2015 terms
Description: Test solvents: methanol, acetonitrile, ethanol, isopropanol, a 0.1 mol/L aqueous solution of hydrochloric acid and a 0.1 mol/L aqueous solution of sodium hydroxide. Test method: the investigation was conducted according to Item 15(2) of the General Notices in Volume IV of the Chinese Pharmacopoeia (2015 edition). An appropriate amount of a sample of the crystalline form A prepared in Example 5 (the solvent used in the crystal preparation was isopropanol) was weighed and added to a certain volume of the solvent at 25±2° C. The mixture was shaken strongly for 30 seconds at an interval of 5 minutes. […] It was considered to be completely soluble if none of the particles of the solute was observed.

[5] = Pharmacokinetic experiment of the crystalline form A in rats; assay type: in vivo; settings: both sexes, Sprague-Dawley (SD), rat, blood, 3 mg/kg
Excerpt: Formulation of the test sample for intravenous administration: the sample of Example 5 (the solvent used in the crystal preparation was isopropanol) was taken and dissolved in 5% DMSO+5% Solutol (HS15)+90% normal saline, to obtain the test sample solution for intravenous administration;
Formulation of the test sample for intragastric administration: the sample of Example 5 (the solvent used in the crystal preparation was isopropanol) was taken and suspended in 97.5% of 0.5% methyl cellulose (MC)+2.5% Solutol (HS15) to obtain a suspension, which was used as the test sample for intragastric administration.
12 SD rats were randomly divided into two groups, groups A and B (6 rats per group, half male and half female). The rats in Group A were each given a single intravenous injection of the sample drug; the rats in Group B were each given the sample drug through intragastric administration, and the dosages are both 3 mg/kg. The blood sampling time points for the intravenous and intragastric administration were before administration and 0.083, 0.25, 0.5, 1.0, 2.0, 4.0, 6.0, 8.0, 10, and 24 h after administration.

[6] = Determination of the log P value (Sirius T3, pH-metric medium log P); assay type: physicochemical; settings: titration from low to high pH
Description: The log P value of a sample of the crystalline form A prepared in Example 5 (the solvent used in the crystal preparation was isopropanol) was measured with the Sirius T3 instrument for physical and chemical profile determination. The Sirius log P test method (pH-metric medium log P) was employed, wherein the pH-metric medium log P determination mode was selected, and the titration order was from low to high pH.

Beagle dogs = assay: Single dose toxicity in Beagle dogs; assay type: in vivo
Description: Formulation of the test sample: a required amount of a sample of the crystalline form A of Example 5 (the solvent used in the crystal preparation was isopropanol) was weighed and added to a mortar, polyethylene glycol-15 hydroxystearate (HS15) in an amount of 2.5% of the total volume was added, and the sample was evenly ground. The mortar was washed with a 0.5% methyl cellulose (MC) solution with grinding, until there was no visible residue. The mixture was transferred to a calibrated container, and then diluted with a 0.5% methyl cellulose solution to the volume. The solution was stirred uniformly with a magnetic stirrer to obtain a suspension, which was used as the test sample.
3 groups (4 dogs per group, half male and half female) were set in the single-dose toxicity test in Beagle dogs, and they were the vehicle control group and the low- and high-dose groups of the crystalline form A of the compound of Formula (I).

[7] = Stability of the crystalline form A at a high temperature (XRPD); assay type: physicochemical; settings: 7 days
Description: as §1, with “allowed to stand under vacuum” for “ground”, “60° C.,” for “a constant speed in a mortar,”, “on Day 2, 5” for “after the grinding was performed for 2”, “7,” for “5 minutes,”

hERG = hERG (Homo sapiens, UniProt Q12809); settings: background statement, no test described; cited from earlier work
Sequence of hERG (Q12809 whole entry): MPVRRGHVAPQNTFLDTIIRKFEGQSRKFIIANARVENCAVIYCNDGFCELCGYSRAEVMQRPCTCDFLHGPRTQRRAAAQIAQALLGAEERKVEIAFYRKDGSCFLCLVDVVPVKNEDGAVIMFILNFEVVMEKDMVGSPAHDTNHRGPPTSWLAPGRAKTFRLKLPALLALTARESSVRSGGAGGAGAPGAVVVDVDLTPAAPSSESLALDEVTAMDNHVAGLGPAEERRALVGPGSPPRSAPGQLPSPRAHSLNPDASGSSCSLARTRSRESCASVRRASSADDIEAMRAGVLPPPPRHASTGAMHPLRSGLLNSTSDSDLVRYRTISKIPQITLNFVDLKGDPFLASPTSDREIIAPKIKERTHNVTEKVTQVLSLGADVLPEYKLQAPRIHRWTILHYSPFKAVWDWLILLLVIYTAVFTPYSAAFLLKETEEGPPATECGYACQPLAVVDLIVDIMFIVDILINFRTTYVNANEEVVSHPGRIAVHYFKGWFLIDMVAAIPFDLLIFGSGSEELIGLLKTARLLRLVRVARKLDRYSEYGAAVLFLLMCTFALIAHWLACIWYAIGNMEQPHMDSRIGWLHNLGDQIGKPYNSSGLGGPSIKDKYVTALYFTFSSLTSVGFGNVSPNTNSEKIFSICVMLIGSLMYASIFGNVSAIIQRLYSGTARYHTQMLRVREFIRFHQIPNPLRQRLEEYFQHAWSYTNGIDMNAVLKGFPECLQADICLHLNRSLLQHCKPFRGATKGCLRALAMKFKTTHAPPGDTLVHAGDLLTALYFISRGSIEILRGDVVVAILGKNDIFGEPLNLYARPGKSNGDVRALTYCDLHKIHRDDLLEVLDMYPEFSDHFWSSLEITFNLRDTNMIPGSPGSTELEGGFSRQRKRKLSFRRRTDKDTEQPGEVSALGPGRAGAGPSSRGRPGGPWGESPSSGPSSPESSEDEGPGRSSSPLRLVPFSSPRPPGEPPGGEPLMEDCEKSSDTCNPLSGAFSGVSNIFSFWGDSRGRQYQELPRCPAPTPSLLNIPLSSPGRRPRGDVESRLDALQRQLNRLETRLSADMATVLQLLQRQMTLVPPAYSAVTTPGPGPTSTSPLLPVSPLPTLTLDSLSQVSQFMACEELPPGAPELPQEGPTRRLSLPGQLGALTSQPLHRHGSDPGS

[8] = po, SD rats, intragastric, single dose, n = 6
[9] = SD rats, intravenous, single dose, n = 6

SMILES: COC(=O)C1=C(CN2CCO[C@H](/C=C/C(=O)O)C2)NC(c2nccs2)=N[C@H]1c1ccc(F)cc1Cl [crystalline form A, (E)-3-((R)-4-(((R)-6-(2-chloro-4-fluorophenyl)-5-(methoxycarbonyl)-2-(thiazol-2-yl)-3,6-dihydropyrimidin-4-yl)methyl)morpholin-2-yl)acrylic acid]
- crystalline form after grinding (XRPD) [1]: did not change
- crystalline form after standing at room temperature (XRPD) [2]: did not change
- weight increase by hygroscopy ([3]; DVS, 25° C., 80% humidity): 0.28%
- hygroscopicity class (Chinese Pharmacopoeia 2015) ([3]; weight increase within 0.2%-2%): slightly hygroscopic
- abnormalities after 14 days (SD rats; intragastric single dose, condition, body weight, food intake, hematology, blood biochemistry, gross anatomy): no abnormalities were observed
- tolerability, single dose (SD rats; intragastric, low-, medium-, high-dose groups, 14 days observation): well tolerated
- solubility in 0.1 mol/L aqueous solution of hydrochloric acid [4]: sparingly soluble
- solubility in 0.1 mol/L aqueous solution of sodium hydroxide [4]: sparingly soluble
- solubility in acetonitrile [4]: soluble
- solubility in ethanol [4]: soluble
- solubility in isopropanol [4]: slightly soluble
- solubility in methanol [4]: soluble
- bioavailability ([5]; oral, rats, intragastric vs intravenous, calculated based on AUC0-∞, read-out: absolute bioavailability): 62.4%
- AUC(0-inf) [5, 8]: 6490 ± 2950 ng·h/mL
- AUC(0-t) [5, 8]: 6460 ± 2940 ng·h/mL
- Cmax [5, 8]: 3980 ± 1440 ng/mL
- half-life [5, 8]: 60.6 ± 15.6 min
- Tmax ([5]; po, SD rats, intragastric, single dose, n = 6, median (range in next line)): 22.8 min
- AUC(0-inf) [5, 9]: 10400 ± 4500 ng·h/mL
- AUC(0-t) [5, 9]: 10400 ± 4500 ng·h/mL
- Cmax [5, 9]: 9210 ± 2100 ng/mL
- half-life [5, 9]: 52.8 ± 10.8 min
- logP [6]: 2.4 to 2.6
- tolerability, single dose (Beagle dogs; Beagle dogs, intragastric, low- and high-dose groups, 14 days observation): well tolerated
- abnormalities after 14 days (Beagle dogs; dog, in vivo): no abnormalities were observed
- crystalline form after standing under vacuum at 60° C. (XRPD) [7]: did not change

SMILES: COC(=O)C1=C(CN2CCO[C@H](/C=C/C(=O)O)C2)NC(c2nccs2)=N[C@H]1c1ccc(F)cc1Cl [compound of Formula (I), (E)-3-((R)-4-(((R)-6-(2-chloro-4-fluorophenyl)-5-(methoxycarbonyl)-2-(thiazol-2-yl)-3,6-dihydropyrimidin-4-yl)methyl)morpholin-2-yl)acrylic acid]
- cardiotoxicity (hERG): no cardiotoxicity
